“Also recorded” adds a separate entry of the source.
molecular target: T1, dialyzed COI1-ASK1 in the presence of JAZ1 (Arabidopsis thaliana, UniProt O04197+Q9LMA8); assay: inositol phosphate reconstitution assay; type: binding; settings: dialyzed COI1, 100 nM ^3H-coronatine, 1 µM inositol phosphate
T1 sequence (O04197 1-592): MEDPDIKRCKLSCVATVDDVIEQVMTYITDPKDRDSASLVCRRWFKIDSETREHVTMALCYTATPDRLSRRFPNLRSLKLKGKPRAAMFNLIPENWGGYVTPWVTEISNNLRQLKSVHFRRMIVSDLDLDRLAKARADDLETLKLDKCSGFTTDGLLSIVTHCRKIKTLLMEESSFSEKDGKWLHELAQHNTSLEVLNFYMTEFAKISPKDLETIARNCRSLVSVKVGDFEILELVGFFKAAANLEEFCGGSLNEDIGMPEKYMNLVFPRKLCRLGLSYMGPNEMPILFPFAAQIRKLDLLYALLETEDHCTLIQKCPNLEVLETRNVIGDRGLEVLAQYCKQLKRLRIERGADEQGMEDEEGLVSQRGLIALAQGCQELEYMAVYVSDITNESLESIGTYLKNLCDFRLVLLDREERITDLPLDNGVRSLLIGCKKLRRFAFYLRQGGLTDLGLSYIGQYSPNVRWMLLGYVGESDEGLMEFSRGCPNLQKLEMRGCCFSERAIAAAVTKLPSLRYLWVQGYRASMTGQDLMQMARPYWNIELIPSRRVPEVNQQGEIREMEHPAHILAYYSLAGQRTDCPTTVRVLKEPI
T1 sequence (Q39255 1-160 partner): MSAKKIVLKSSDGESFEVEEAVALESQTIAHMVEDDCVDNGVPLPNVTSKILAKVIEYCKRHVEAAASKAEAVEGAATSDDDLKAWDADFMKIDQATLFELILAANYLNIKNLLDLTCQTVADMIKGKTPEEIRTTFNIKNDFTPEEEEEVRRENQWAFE
T1 sequence (Q9LMA8 1-253): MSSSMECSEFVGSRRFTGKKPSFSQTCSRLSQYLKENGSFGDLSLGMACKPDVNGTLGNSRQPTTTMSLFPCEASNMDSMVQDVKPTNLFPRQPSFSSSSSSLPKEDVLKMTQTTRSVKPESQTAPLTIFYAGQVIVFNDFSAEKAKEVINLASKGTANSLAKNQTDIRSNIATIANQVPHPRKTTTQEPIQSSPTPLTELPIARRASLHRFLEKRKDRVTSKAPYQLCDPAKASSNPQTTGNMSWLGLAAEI

Row | SMILES | support of COI1-JAZ1 co-receptor ligand binding activity
1 | O=P(O)(O)O[C@H]1[C@H](OP(=O)(O)O)[C@@H](OP(=O)(O)O)[C@@H](O)[C@@H](O)[C@@H]1OP(=O)(O)O [inositol (1,4,5,6) tetrakisphosphate] | supports the activity; also recorded: support high affinity hormone binding
2 | O=P(O)(O)OC1C(OP(=O)(O)O)C(OP(=O)(O)O)C(OP(=O)(O)O)C(OP(=O)(O)O)C1OP(=O)(O)O (stereo not drawn) [InsP6, inositol hexakisphosphate] | not favorable for activity
3 | O=P(O)(O)O[C@@H]1[C@H](O)[C@H](O)[C@@H](OP(=O)(O)O)[C@H](OP(=O)(O)O)[C@H]1O [inositol (1,4,5) triphosphate] | does not

Reference: publication PMC2988090 (Nature, 2010)
